From ChEMBL document CHEMBL5726630, “Inhibitors of human immunodeficiency virus replication” (2019) come the findings set out here.

Usually EC50 stands for the concentration that produces a half-maximal response.

The experiment can be described thus: Biological Methods: HIV cell culture assay-MT-2 cells, 293T cells and the proviral DNA clone of NL4-3 virus were obtained from the NIH AIDS Research and Reference Reagent Program. MT-2 cells were propagated in RPMI 1640 media supplemented with 10% heat inactivated fetal bovine serum (FBS), 100 jag/ml penicillin G and up to 100 units/mL streptomycin. The 293T cells were propagated in DMEM media supplemented with 10% heat inactivated FBS, 100 μg/mL penicillin G and 100 μg/mL streptomycin. A recombinant NL4-3 proviral clone, in which a section of the nef gene was replaced with the Renilla luciferase gene, was used to make the reference virus used in these studies. The recombinant virus was prepared through transfection of the recombinant NL4-3 proviral clone into 293T cells using Transit-293 Transfection Reagent from Mirus Bio LLC (Madison, Wis.). Supernatant was harvested after 2-3 days and the amount of virus present was titered in MT-2 cells using luciferase enzyme activity as a marker by measuring luciferase enzyme activity. Luciferase was quantitated using the EnduRen Live Cell Substrate from Promega (Madison, Wis.). Antiviral activities of compounds toward the recombinant virus were quantified by measuring luciferase activity in MT-2 cells infected for 4-5 days with the recombinant virus in the presence of serial dilutions of the compound. The class given is cell-based.

With `C[C@@H]1Cc2cccnc2N1S(=O)(=O)NC(=O)N[C@@H](Cc1cc(F)cc(F)c1)C(=O)N(C)c1ccc2scnc2c1`, the EC50 is 20 nM.
For `C[C@H]1Cc2cccnc2N1S(=O)(=O)NC(=O)N[C@@H](Cc1cc(F)cc(F)c1)C(=O)N(C)c1ccc2scnc2c1`, the EC50 was 50 nM.
Turning to `CC1CN(S(=O)(=O)NC(=O)N[C@@H](Cc2cc(F)cc(F)c2)C(=O)N(C)c2ccc3scnc3c2)c2ncccc21` (single isomer, unassigned), the concentration for a half-maximal effect (EC50) was under 10 nM.
Next, `C[C@@H]1CCc2ccccc2N1S(=O)(=O)NC(=O)N[C@@H](Cc1cc(F)cc(F)c1)C(=O)N(C)c1ccc2scnc2c1`: 100 nM.
In the case of `C[C@H]1CCc2ccccc2N1S(=O)(=O)NC(=O)N[C@@H](Cc1cc(F)cc(F)c1)C(=O)N(C)c1ccc2scnc2c1`, the 50% effective concentration (EC50) worked out at 90 nM.
